Laboratory results reported in the supplement of paper PMC10307832.

Key:
Assay in all cases: relative viability (nuclei count vs DMSO), 5 days (fraction); higher = more cells survive
Silmitasertib = compound: O=C(O)c1ccc2c(c1)nc(Nc1cccc(Cl)c1)c1ccncc12 [Silmitasertib]
Summary of the method: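 For viability, nuclei in each treated well were divided by nuclei in vehicle wells and the median across plates was taken. Lung cancer cell lines in 1536-well plates were pinned with five library-drug doses (not always all listed) spaced by √10, cultured 5 days without medium change, and imaged at 4× after Hoechst staining, with plates passing only at control CV below 25% and at least one doubling.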

[1] = compound: O=C(O)c1ccc2c(c1)nc(Nc1cccc(Cl)c1)c1ccncc12 [Silmitasertib] + O=C(CCCCCCC(=O)Nc1ccccc1)NO [Vorinostat] (partner 1 µM)
Summary of the method: (§1)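 The day after seeding in 1536-well plates, lung cancer cell lines were treated by pin tool with a single drug, or with a fixed anchor-drug dose together with five library-drug doses (not always all listed) in √10 steps. After 5 days, a combined fix-and-stain solution (final 0.05% Triton X-100, 1% formaldehyde, 1 ug/ml Hoechst) was added. Nuclei counted on 4× images gave relative viability as treated counts over vehicle counts, reported as the median of duplicate plates.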

Silmitasertib + AZD7762 = compound: O=C(O)c1ccc2c(c1)nc(Nc1cccc(Cl)c1)c1ccncc12 [Silmitasertib] + NC(=O)Nc1cc(-c2cccc(F)c2)sc1C(=O)N[C@H]1CCCNC1 [AZD7762] (partner 0.2 µM)
Summary of the method: as §1

[2] = compound: O=C(O)c1ccc2c(c1)nc(Nc1cccc(Cl)c1)c1ccncc12 [Silmitasertib] + CS(=O)(=O)CCNCc1ccc(-c2ccc3ncnc(Nc4ccc(OCc5cccc(F)c5)c(Cl)c4)c3c2)o1 [Lapatinib] (partner 2 µM)
Summary of the method: as §1

[3] = compound: O=C(O)c1ccc2c(c1)nc(Nc1cccc(Cl)c1)c1ccncc12 [Silmitasertib] + CC(=O)Nc1cccc(-n2c(=O)n(C3CC3)c(=O)c3c(Nc4ccc(I)cc4F)n(C)c(=O)c(C)c32)c1 [Trametinib] (partner 0.02 µM)
Summary of the method: as §1

Cell Line	relative viability (Silmitasertib; 0.04 µM)	relative viability (Silmitasertib; 0.4 µM)	relative viability (Silmitasertib; 1.265 µM)	relative viability (Silmitasertib; 4 µM)	relative viability ([1]; first compound 0.04 µM)	relative viability ([1]; first compound 0.4 µM)	relative viability ([1]; first compound 1.265 µM)	relative viability ([1]; first compound 4 µM)	relative viability (Silmitasertib + AZD7762; first compound 0.04 µM)	relative viability (Silmitasertib + AZD7762; first compound 0.4 µM)	relative viability (Silmitasertib + AZD7762; first compound 1.265 µM)	relative viability (Silmitasertib + AZD7762; first compound 4 µM)	relative viability ([2]; first compound 0.04 µM)	relative viability ([2]; first compound 1.265 µM)	relative viability ([2]; first compound 4 µM)	relative viability ([3]; first compound 0.04 µM)	relative viability ([3]; first compound 0.4 µM)	relative viability ([3]; first compound 1.265 µM)	relative viability ([3]; first compound 4 µM)	relative viability ([2]; first compound 0.4 µM)
NCI-H838	1.03	0.747	0.925	0.678	0.787	0.837	0.807	0.848	0.828	0.864	1.03	0.951	1.28	0.753	0.465	0.673	0.489	0.463	0.309	–
NCI-H3122	0.995	0.889	1.02	0.983	1.04	0.807	0.679	1.19	1.04	0.705	0.99	0.92	1.07	1.07	1.08	0.204	0.174	0.212	0.264	0.975
SK-MES-1	1.04	0.989	0.855	0.491	1.21	0.876	0.8	0.297	–	–	–	–	0.442	0.536	0.429	0.589	0.477	0.535	0.469	0.594
NCI-H1944	1.01	0.748	0.994	0.936	0.595	0.459	0.647	0.531	0.591	0.399	0.547	0.528	0.826	0.822	0.816	0.419	0.403	0.481	0.429	0.807
LK-2	1.04	0.727	1.03	0.943	0.296	–	0.404	0.18	0.344	–	0.362	0.219	1.12	0.867	0.718	0.674	–	0.678	0.702	0.928
PC-3 [JPC-3]	1.04	0.812	1.1	0.953	0.815	0.706	0.833	0.436	0.862	0.723	0.897	0.75	0.51	0.458	0.303	0.716	0.661	0.795	0.632	0.417
COR-L23	1.07	0.782	1.09	0.831	0.62	0.378	0.525	0.401	–	–	–	–	1.15	0.92	0.457	0.737	0.369	0.497	0.456	0.792
NCI-H1355	1.06	–	0.918	0.668	0.664	–	0.622	0.499	0.729	–	0.776	0.679	1.08	0.883	0.726	0.454	–	0.393	0.367	–
NCI-H460	1.03	0.951	0.959	0.799	0.722	0.747	0.668	0.842	0.608	0.671	0.759	0.384	1.21	1.02	0.305	0.201	0.196	0.131	0.0739	0.997
NCI-H1993	1.08	0.742	0.837	0.622	0.911	0.553	0.659	0.514	0.925	0.653	0.721	0.663	0.815	0.887	0.803	0.584	0.609	0.578	0.586	0.753
ChaGo-K-1	1.07	0.735	0.96	0.885	0.786	0.574	0.62	0.539	0.905	0.618	0.85	0.913	–	–	–	0.938	0.704	0.821	0.907	–
HCC-15	1.11	0.769	0.825	0.377	1.02	0.699	0.579	0.671	1.19	0.884	1.15	0.875	0.91	0.676	0.321	0.407	0.343	0.275	0.286	0.52
NCI-H23	1.07	0.395	0.747	0.372	0.6	0.281	0.545	0.165	0.29	0.153	0.344	0.165	1.45	0.73	0.355	0.439	0.323	0.365	0.36	–
NCI-H1395	1.07	0.772	0.913	0.555	0.93	0.616	0.662	0.538	0.425	0.42	0.421	0.41	1.29	0.919	0.68	1.07	0.809	1.03	1.14	0.672
NCI-H1666	1.05	0.834	0.745	0.692	1.06	0.845	0.855	0.689	0.915	0.857	0.763	0.627	0.734	0.452	0.319	0.915	0.728	0.876	0.752	0.564
NCI-H2405	1.24	0.831	0.883	0.81	1.1	0.927	0.839	0.519	0.803	0.754	0.617	0.634	1.51	0.844	0.562	0.681	0.605	0.619	0.775	0.903
